Experiment [1] has as its target T1, synthetic human Aβ1-42 fibrils (Homo sapiens, UniProt P05067).
T1 construct: Synthetic lyophilized human Aβ1-42 peptide; purchased EMC Microcollections, Tuebingen, Germany; host or cells: chemical synthesis
The experiment can be described thus: Competition binding assay against [^3H]SIL26 on Aβ1-42 fibrils. How it is done: (§1) The generation of Aβ1-42 fibrils was adapted from Bagchi et al. and described by Kuebler et al.. Synthetic lyophilized human Aβ1-42 peptide (5 mg) with >90% purity (EMC Microcollections, Tuebingen, Germany) was dissolved in DMSO (221.5 µL). […] . The monomers were incubated in an Eppendorf Thermomixer at 37 °C with shaking at 800 rpm for 72 h to induce aggregation. Generated fibrils were sonicated for three minutes in a water bath (Elmasonic S 60 H, Elma Schmidbauer GmbH, Singen, Germany). The final products were aliquoted, frozen on dry ice, and stored at −80 °C until use.
(§2) Plates were incubated on a shaker (MaxQ 6000, Thermo Fisher Scientific Inc., Marietta, OH, USA) at 50 rpm for 2 h at 37 °C, covered by removable sealing tape (PerkinElmer, Waltham, MA, USA). Vacuum filtration and read-out were performed as previously reported. Briefly, a glass fiber Filtermat B (PerkinElmer, Waltham, MA, USA) incubated with 0.5% polyethylenimine (PEI; Sigma Aldrich Chemie GmbH, Munich, Germany) for 30 min at 4 °C prior to filter harvesting was used with a FilterMate Harvester (PerkinElmer, Waltham, MA, USA). Melt-on scintillator sheets (MeltiLex B/HS, PerkinElmer, Waltham, MA, USA) were melted onto dried filters. Accumulation of tritium was counted in a liquid scintillation Wallac MicroBeta TriLux counter (PerkinElmer, Waltham, MA, USA) at two minutes/well.
(§3) . Data points were fitted using non-linear regression analysis in GraphPad Prism (GraphPad Software, Inc., Version 8.4.0, San Diego, CA, USA).

For experiment [2], the target named is T2, human recombinant αSYN fibrils (Homo sapiens, UniProt P37840). The experiment can be described thus: Competition binding assay against [^3H]SIL26 on αSYN fibrils.
Procedure: (§4) The concentrations of αSYN fibrils and Aβ1-42 fibrils as above were used.
(§5) Plates were incubated on a shaker (MaxQ 6000, Thermo Fisher Scientific Inc., Marietta, OH, USA) at 50 rpm for 2 h at 37 °C, covered by removable sealing tape (PerkinElmer, Waltham, MA, USA). Vacuum filtration and read-out were performed as previously reported [18]. Briefly, a glass fiber Filtermat B (PerkinElmer, Waltham, MA, USA) incubated with 0.5% polyethylenimine (PEI; Sigma Aldrich Chemie GmbH, Munich, Germany) for 30 min at 4 °C prior to filter harvesting was used with a FilterMate Harvester (PerkinElmer, Waltham, MA, USA). Melt-on scintillator sheets (MeltiLex B/HS, PerkinElmer, Waltham, MA, USA) were melted onto dried filters. Accumulation of tritium was counted in a liquid scintillation Wallac MicroBeta TriLux counter (PerkinElmer, Waltham, MA, USA) at two minutes/well.
Experiment [3] addresses T2, human recombinant αSYN fibrils. The experiment can be described thus: Competition binding assay against [^3H]MODAG−001 on αSYN fibrils. The conditions noted are these: for αSYN—Ki [^3H]MODAG−001: competition vs 1 nM [^3H]MODAG−001, αSYN fibrils 50 nM, mean ± SEM.
Procedure: as §4, §5
In experiment [4] the target is T1, synthetic human Aβ1-42 fibrils. The experiment can be described thus: Competition binding assay against [^3H]MODAG−001 on Aβ1-42 fibrils. Conditions: competition vs 1 nM [^3H]MODAG−001, Aβ1-42 fibrils 1 µM; mean ± SEM; read-out: Aβ—Ki [^3H]MODAG−001. The method, then:
as §1, §2, §3

The target in a further experiment is Aβ. Conditions: FDA-approved Aβ PET tracers; cited from earlier work.
Another experiment has as its system αSYN. The conditions noted are these: carbon-11 labeled PET tracer; cited from earlier work.
Where [5] appears, read: competition vs [^3H]SIL26 (7 nM), αSYN fibrils 35 nM, mean ± SEM.

T1 sequence (P05067 672-713 limits assumed): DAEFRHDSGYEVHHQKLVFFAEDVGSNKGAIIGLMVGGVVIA

Consider `FCCOc1ccc2c(c1)Sc1cc(-c3cc(-c4ccccc4)n[nH]3)ccc1N2` [DAP2a, 3-(2-Fluoroethoxy)-7-(3-phenyl-1H-pyrazol-5-yl)-10H-phenothiazine], for which the Ki (commonly the dissociation constant of the complex between target and ligand, obtained from inhibition or displacement) was 25.8 ± 5.8 nM in experiment [1], above 400 nM in experiment [2], 144 ± 49.5 nM in experiment [3] and 7.7 ± 1.7 nM in experiment [4].
Take `CNc1ccc(-c2nc3ccc(O)cc3s2)cc1F` [Flutemetamol]: the inhibition constant Ki on Aβ was 0.74 ± 0.38 nM.
As to `FCCOc1ccc2c(c1)Sc1cc(-c3cc(-c4cccc(F)c4)n[nH]3)ccc1N2` [DAP2c, 3-(2-Fluoroethoxy)-7-(3-(3-fluorophenyl)-1H-pyrazol-5-yl)-10H-phenothiazine], the Ki was 3.1 ± 2.1 nM in experiment [1], above 400 nM in experiment [2], 212 ± 93.8 nM in experiment [3] and 8 ± 1.3 nM in experiment [4].
On to `COc1ccc2c(c1)Sc1cc(-c3cc(-c4ccccc4)n[nH]3)ccc1N2` [DAP1a, 3-Methoxy-7-(3-phenyl-1H-pyrazol-5-yl)-10H-phenothiazine], for which the Ki was 10.7 nM in experiment [1], 186 ± 145 nM in experiment [2], 289 ± 159 nM in experiment [3] and 10.5 ± 0.9 nM in experiment [4].
Turning to `CN(C)c1ccc(-c2cc(-c3cccc(Br)c3)[nH]n2)cc1` [[^11C]anle253b], the half-maximal inhibitory concentration (IC50) (as a rule, the concentration needed to halve the response being measured) in the experiment on αSYN is 1.6 nM.
As to `COc1cccc(Sc2cc(-c3cc(-c4ccccc4)n[nH]3)ccc2N)c1` [DAP3a, 2-((3-Methoxyphenyl)thio)-4-(3-phenyl-1H-pyrazol-5-yl)aniline], the inhibition constant Ki in experiment [1] is 86.1 nM; in experiment [4] it was above 400 nM. Moreover, the “αSYN—Ki [^3H]SIL26” value in experiment [2] (setting [5]) is listed as “no competition ^a”. The “αSYN—Ki [^3H]MODAG−001” value in experiment [3] was “no competition”.
Take `COc1ccc2c(c1)Sc1cc(-c3cc(-c4cccc(F)c4)n[nH]3)ccc1N2` [DAP1c, 3-(3-(3-Fluorophenyl)-1H-pyrazol-5-yl)-7-methoxy-10H-phenothiazine]: the inhibition constant Ki is 1 nM in experiment [1], above 400 nM in experiment [2], above 400 nM in experiment [3] and 15.9 ± 2.4 nM in experiment [4].
For `CNc1ccc(/C=C/c2ccc(OCCOCCOCCF)cc2)cc1` [Florbetaben], the Ki at Aβ is 6.7 ± 0.3 nM.
As for `FCCOc1ccc2c(c1)Sc1cc(-c3cc(-c4ccccn4)n[nH]3)ccc1N2` [DAP2b, 3-(2-Fluoroethoxy)-7-(3-(pyridin-2-yl)-1H-pyrazol-5-yl)-10H-phenothiazine], the Ki in experiment [1] was 65.8 ± 56.4 nM; in experiment [2], above 400 nM; in experiment [3] it was 107 ± 31.4 nM; in experiment [4], 12.2 ± 1.7 nM.
For the molecule `CN(C)c1ccc(-c2cc(-c3ccnc(Br)c3)n[nH]2)cc1` [MODAG−001, reference compound], the Kd (in general, the equilibrium constant for the complex coming apart) on αSYN is 0.6 ± 0.1 nM. Besides, the Ki in experiment [2] (read-out: αSYN—Ki [^3H]SIL26, competition vs [^3H]SIL26 (7 nM), αSYN fibrils 35 nM, mean ± SEM) was found to be 10.8 nM.
On to `CNc1ccc(/C=C/c2ccc(OCCOCCOCCF)nc2)cc1` [Florbetapir], for which the Kd at Aβ was 3.72 ± 0.3 nM.
For the molecule `COc1cccc(Sc2cc(-c3cc(-c4ccccn4)n[nH]3)ccc2N)c1` [DAP3b, 2-((3-Methoxyphenyl)thio)-4-(3-(pyridin-2-yl)-1H-pyrazol-5-yl)aniline], in experiment [2] (setting [5]), the “αSYN—Ki [^3H]SIL26” value is recorded as “no competition ^a”. In addition, the “αSYN—Ki [^3H]MODAG−001” value in experiment [3] is reported as “no competition”. Moreover, the Ki in experiment [4] is above 400 nM.
Regarding `COc1ccc2c(c1)Sc1cc(-c3cc(-c4ccccn4)n[nH]3)ccc1N2` [DAP1b, 3-Methoxy-7-(3-(pyridin-2-yl)-1H-pyrazol-5-yl)-10H-phenothiazine], the Ki in experiment [1] is 7.6 nM; in experiment [2], 90.1 ± 56.8 nM; in experiment [3] it was 69.9 ± 14.9 nM; in experiment [4] it was 10.3 ± 0.8 nM.
Take `COc1cccc(Sc2cc(-c3cc(-c4cccc(F)c4)n[nH]3)ccc2N)c1` [DAP3c, 4-(3-(3-Fluorophenyl)-1H-pyrazol-5-yl)-2-((3-methoxyphenyl)thio)aniline]: the “αSYN—Ki [^3H]SIL26” value in experiment [2] (setting [5]) is recorded as “no competition ^a”. Besides, the “αSYN—Ki [^3H]MODAG−001” value in experiment [3] is recorded as “no competition”. In experiment [4], the Ki is above 400 nM.

The record behind these values is article PMC10224536 (Molecules, 2023).
